Results from patent US20240109905A1, “4-ALKOXY-6-OXO-PYRIDAZINE DERIVATIVES MODULATING NLRP3” (JANSSEN PHARMACEUTICA NV, priority 2021, published 2024).
Read-outs that look alike come from different tables or passages of the source.

Key:
IL-1β = test: PBMC assay: IL-1β release after LPS stimulation; type: cell-based; conditions: human PBMCs, 30 min compound, 100 ng/ml LPS for 6 hrs, MSD, read-out: IL1β AC50
Method: The activity of a compound according to the present invention can be assessed by in vitro methods.
(§1) Peripheral venous blood was collected from healthy individuals and human peripheral blood mononuclear cells (PBMCs) were isolated from blood by Ficoll-Histopaque (Sigma-Aldrich, A0561) density gradient centrifugation. After isolation, PBMCs were stored in liquid nitrogen for later use. Upon thawing, PBMC cell viability was determined in growth medium (RPMI media supplemented with 10% fetal bovine serum, 1% Pen-Strep and 1% L-glutamine). Compounds were spotted in a 1:3 serial dilution in DMSO and diluted to the final concentration in 30 μl medium in 96 well plates (Falcon, 353072). PBMCs were added at a density of 7.5×10^4 cells per well and incubated for 30 min in a 5% CO2 incubator at 37° C. LPS stimulation was performed by addition of 100 ng/ml LPS (final concentration, Invivogen, tlrl-smlps) for 6 hrs followed by collection of cellular supernatant and the analysis of IL-1β (μM) and TNF cytokines levels (μM) via MSD technology according to manufacturers' guidelines (MSD, K151A0H).
(§2) IC50 and AC50 values (for […]) and EC50 and AC50 values (TNF) were obtained on compounds of the invention/examples, and the AC50 values are depicted in the following table: […]

TNF = test: PBMC assay: TNF cytokine level after LPS stimulation; type: cell-based; conditions: human PBMCs, 30 min compound, 100 ng/ml LPS for 6 hrs, MSD
Method: as §1, §2

| SMILES | AC50 (IL-1β; PBMC) | AC50 (TNF; PBMC) | AC50 (IL-1β) | AC50 (TNF) |
| --- | --- | --- | --- | --- |
| CC(C)COc1cc(=O)n(CC(=O)Nc2nc3ccc(Cl)cn3n2)nc1C(C)C [Compound 129] | 4.7 µM | > 20 µM |  |  |
| Cc1nccc(NC(=O)Cn2nc(C(C)C)c(OCC(C)C)cc2=O)c1F [Compound 63] | 0.19 µM | > 20 µM |  |  |
| CC(C)COc1c(C(C)C)nn(CC(=O)Nc2ccc3nncn3c2)c(=O)c1C(F)F [Compound 118] | 2.3 µM | > 20 µM |  |  |
| CC(C)c1nn(CC(=O)Nc2ccc3nncn3c2)c(=O)cc1OCC1(F)CC1 [Compound 64] | 0.2 µM | > 20 µM |  |  |
| Cc1c(OCC(C)C)c(C(C)C)nn(CC(=O)Nc2ccc3nncn3c2)c1=O [Compound 54, N-([1,2,4]triazolo[4,3-a]pyridin-6-yl)-2-(4-isobutoxy-3-isopropyl-5-methyl-6-oxopyridazin-1(6H)-yl)acetamide] | 0.1 µM | 15.6 µM |  |  |
| COC(=O)CC12CC(NC(=O)Cn3nc(C(C)C)c(OCC(C)C)cc3=O)(C1)C2 [Compound 71, methyl 2-(3-(2-(4-isobutoxy-3-isopropyl-6-oxopyridazin-1(6H)-yl)acetamido)bicyclo[1.1.1]pentan-1-yl)acetate] | 0.26 µM | > 20 µM |  |  |
| CC(C)COc1cc(=O)n(CC(=O)NC23CC(O)(C2)C3)nc1C(C)C [Compound 82] | 0.5 µM | > 20 µM |  |  |
| CC(C)c1nn(CC(=O)Nc2ccc3nncn3c2)c(=O)cc1OC1CCN(C(=O)OC(C)(C)C)C1 (centres unmarked) [Compound 1F, tert-butyl 3-((1-(2-([1,2,4]triazolo[4,3-a]pyridin-6-ylamino)-2-oxoethyl)-3-isopropyl-6-oxo-1,6-dihydropyridazin-4-yl)oxy)pyrrolidine-1-carboxylate] | > 15 µM | > 10 µM |  |  |
| CC(C)c1nn(CC(=O)Nc2ccc3nncn3c2)c(=O)cc1Oc1ccccc1 [Compound 25F] | > 15 µM | > 10 µM |  |  |
| CC(C)c1nn(CC(=O)Nc2ccc3nncn3c2)c(=O)cc1OCC1CC1(F)F (centres unmarked) [Compound 21F] | 0.65 µM | > 10 µM |  |  |
| CC(C)COc1cc(=O)n(CC(=O)NC23CCC(N)(C2)C3)nc1C(C)C [Compound 86] | 0.66 µM | > 20 µM |  |  |
| CCN1CC[C@]12C[C@H](NC(=O)Cn1nc(C(C)C)c(OCC(C)C)cc1=O)C2 [Compound 81, N-((4s,6r)-1-ethyl-1-azaspiro[3.3]heptan-6-yl)-2-(4-isobutoxy-3-isopropyl-6-oxopyridazin-1(6H)-yl)acetamide] | 0.48 µM | > 20 µM |  |  |
| CN(C)c1nn(CC(=O)Nc2ccc3nncn3n2)c(=O)cc1OCC1CC1 [Compound 76] | 0.37 µM | > 20 µM |  |  |
| CC(C)COc1cc(=O)n(CC(=O)NC23CC(C4=NN(C)C(=O)C4)(C2)C3)nc1C(C)C [Compound 98, 2-(4-isobutoxy-3-isopropyl-6-oxopyridazin-1(6H)-yl)-N-(3-(1-methyl-5-oxo-4,5-dihydro-1H-pyrazol-3-yl)bicyclo[1.1.1]pentan-1-yl)acetamide] | 0.96 µM | > 20 µM |  |  |
| CC(C)COc1cc(=O)n(CC(=O)Nc2nc3ccc(Br)cc3n2C)nc1C(C)C [Compound 135] | > 10 µM | > 10 µM |  |  |
| CC(C)COc1cc(=O)n(CC(=O)NC2(CC(=O)O)CCCC2)nc1C(C)C [Compound 96] |  |  | 0.87 µM | > 20 µM |
| CCCOc1cc(=O)n(CC(=O)Nc2ccc3nncn3c2)nc1C(C)C [Compound 24F] | 0.19 µM | > 10 µM |  |  |
| CCOc1cc(=O)n(CC(=O)Nc2ccc3nncn3n2)nc1C1CC1 [Compound 31C] | 0.92 µM | > 10 µM |  |  |
| CC(C)COc1cc(=O)n(CC(=O)Nc2ccncc2)nc1C(C)C [Compound 47] | 0.08 µM | > 20 µM |  |  |
| CC(C)c1nn(CC(=O)Nc2ccc3nncn3n2)c(=O)cc1OCCC(F)(F)F [Compound 102] | 1.06 µM | > 20 µM |  |  |

| SMILES | AC50 (IL-1β; PBMC) | AC50 (TNF; PBMC) | AC50 (IL-1β) | AC50 (TNF) |
| --- | --- | --- | --- | --- |
| CC(C)COc1cc(=O)n(CC(=O)Nc2nc3ccccc3n2C)nc1C(C)C [Compound 147] | > 20 µM | > 20 µM |  |  |
| CC(C)COc1cc(=O)n(CC(=O)NC23CC(NC(=O)OC(C)(C)C)(C2)C3)nc1C(C)C [Compound 132] | 9.79 µM | > 20 µM |  |  |
| CC(C)c1nn(CC(=O)Nc2ccc3nncn3c2)c(=O)cc1OCCN(C)C [Compound 12F] | > 15 µM | > 10 µM |  |  |
| Cc1cc(C(F)(F)F)n2nc(NC(=O)Cn3nc(C(C)C)c(OCC(C)C)cc3=O)nc2n1 [Compound 130, 2-(4-isobutoxy-3-isopropyl-6-oxopyridazin-1(6H)-yl)-N-(5-methyl-7-(trifluoromethyl)-[1,2,4]triazolo[1,5-a]pyrimidin-2-yl)acetamide] | 8.73 µM | > 20 µM |  |  |
| CC(C)c1nn(CC(=O)Nc2ccc3nncn3c2)c(=O)cc1OC1CCC1 [Compound 14F] | 0.68 µM | > 10 µM |  |  |
| COc1ccc2nc(NC(=O)Cn3nc(C(C)C)c(OCC(C)C)cc3=O)nn2c1 [Compound 123] | 2.91 µM | > 20 µM |  |  |
| CC(C)Oc1cc(=O)n(CC(=O)Nc2ccc3nncn3c2)nc1C(C)C [Compound 18F] | 0.66 µM | > 10 µM |  |  |
| Cc1ccc2c(c1)nc(NC(=O)Cn1nc(C(C)C)c(OCC(C)C)cc1=O)n2C [Compound 133] | > 10 µM | > 10 µM |  |  |
| CC(C)COc1cc(=O)n(CC(=O)Nc2nc3cc(Br)ccc3n2C)nc1C(C)C [Compound 151] | > 20 µM | > 20 µM |  |  |
| CC(C)COc1cc(=O)n(CC(=O)Nc2nc3cc(F)ccc3n2C)nc1C(C)C [Compound 149] | > 20 µM | > 20 µM |  |  |
| Cc1c(OCC(C)C)c(C(C)C)nn(CC(=O)Nc2ccncc2)c1=O [Compound 73] | 0.33 µM | > 20 µM |  |  |
| CNC(C(F)(F)F)C12CC(NC(=O)Cn3nc(C(C)C)c(OCC(C)C)cc3=O)(C1)C2 (centres unmarked) [Compound 109] | 1.35 µM | > 20 µM |  |  |
| CC(C)COc1cc(=O)n(CC(=O)Nc2cn3cccnc3n2)nc1C(C)C [Compound 100] | 1 µM | 4.81 µM |  |  |
| CC(C)COc1c(C(C)C)nn(CC(=O)Nc2ccc3nncn3c2)c(=O)c1C(C)O (centres unmarked) [Compound 155] | > 20 µM | > 20 µM |  |  |
| CC(C)COc1cc(=O)n(CC(=O)NC23CC(N4CCCCC4)(C2)C3)nc1C(C)C [Compound 121] | 2.71 µM | > 20 µM |  |  |
| CC(C)COc1cc(=O)n(CC(=O)NC23CCC(N)(CC2)C3)nc1C(C)C [Compound 75, N-((1r,4r)-4-aminobicyclo[2.2.1]heptan-1-yl)-2-(4-isobutoxy-3-isopropyl-6-oxopyridazin-1(6H)-yl)acetamide] | 0.36 µM | > 20 µM |  |  |
| CC(C)COc1cc(=O)n(CC(=O)NC23CC(CO)(C2)C3)nc1C(C)C [Compound 79] | 0.43 µM | > 20 µM |  |  |
| CC(C)c1nn(CC(=O)Nc2ccc3nncn3n2)c(=O)c(Cl)c1OCC(F)(F)F [Compound 72] | 0.27 µM | 16.6 µM |  |  |
| CC(C)COc1cc(=O)n(CC(=O)Nc2nc3cc(Cl)ccc3o2)nc1C(C)C [Compound 141, N-(5-chlorobenzo[d]oxazol-2-yl)-2-(4-isobutoxy-3-isopropyl-6-oxopyridazin-1(6H)-yl)acetamide] | 12.2 µM | > 20 µM |  |  |
| CC(C)c1nn(CC(=O)Nc2ccc3nncn3c2)c(=O)cc1OCC1(C)COC1 [Compound 15F] | 2.3 µM | > 10 µM |  |  |
